Measured values reported in patent US20200338115A1, “PHARMACEUTICAL COMPOSITION FOR PREVENTION OF RECURRENT URINARY TRACT INFECTION” (priority 2019, published 2020).

Tests used:
[1] = system: uropathogenic Escherichia coli (UPEC); assay: Rat UTI model (Example 1): urine bacterial counts after oral PPS; format: in vivo, Sprague-Dawley (SD) rats
From the text: (§1) UPEC is known as the primary cause of UTI.
(§2) The rats are sacrificed at Day 14.

[2] = system: peripheral white blood cell (WBC) counts; assay: Rat UTI model (Example 1): peripheral white blood cell counts; format: in vivo, Sprague-Dawley (SD) rats; conditions: PPS 30 mg/kg/day oral Day −14 to Day 0
From the text: as §1, §2
FIG. 4 is a bar chart comparing peripheral white blood cell (WBC) counts in the control group, the UTI model group, and the PPS prevention group, in accordance with an embodiment of the present disclosure. The WBC counts in different groups reflect conditions of the UPEC infection in the rats: a higher WBC count may represent a more severe UPEC infection. […] The WBC counts in the UTI model group have remained as the highest among 3 groups on Day 1, Day 3, and Day 7.

IL-1β = assay: Rat UTI model (Example 1): Luminex assay of peripheral blood IL-1β; format: in vivo, Sprague-Dawley (SD) rats; conditions: PPS 30 mg/kg/day oral Day −14 to Day 0; Day 3
From the text: as §1, §2
(§3) Luminex assays are used to evaluate peripheral blood biomarkers relevant to infection or inflammation. FIG. 6 is a bar chart comparing the Luminex assay results for IL-1β in the control group, the UTI model group, and the PPS prevention group, in accordance with an embodiment of the present disclosure. IL-1β level is relevant to a current inflammation or infection, and a higher IL-1β level indicates a more severe inflammation. […] FIG. 7 is a bar chart comparing the Luminex assay results for TNF-α in the control group, the UTI model group, and the PPS prevention group, in accordance with an embodiment of the present disclosure. TNF-α is a cytokine that promotes inflammatory responses, and a higher TNF-α level indicates a more severe inflammation in the rats.

TNF-α = assay: Rat UTI model (Example 1): Luminex assay of peripheral blood TNF-α; format: in vivo, Sprague-Dawley (SD) rats; conditions: PPS 30 mg/kg/day oral Day −14 to Day 0; Day 3 and Day 14
From the text: as §1, §2, §3

bladder epithelium = assay: Rat UTI model (Example 1): H/E staining of bladder tissue; format: in vivo, Sprague-Dawley (SD) rats; conditions: PPS 30 mg/kg/day oral Day −14 to Day 0; rats sacrificed at Day 14
From the text: as §1, §2

[3] = system: recurrent urinary tract infection (rUTI); assay: Phase II randomized controlled trial of oral PPS for prevention of rUTI (Example 2): efficacy; format: in vivo, human subjects
From the text: The current example is a multicenter, prospective, open-label, phase II, randomized controlled trial. The purpose of the current example is to investigate the effects of orally administered PPS in the prevention of rUTI in the human subjects. The study period of the current trial is 16 weeks, which is expected to cover most of the rUTI episodes.
The human subjects in the current example are screened and recruited in the OPD. Eligible patients are 20-70 year-old female patients with confirmed UTI ≥2 times in the past 6 months, or ≥3 times in the past 12 months, and had prior antibiotics treatment for previous UTI episodes(s). The eligible patients are without lower urinary tract symptoms and completely recovered from the last UTI episode. Patients with the following criteria are also excluded: allergic reaction to PPS, undergoing surgery within 24 week in a follow-up period of the current trial, participating in any intervention study 90 days before screening, bladder instillation with hyaluronic acid within 3 months before screening, pregnancy, breast feeding, upper urinary tract infection, fever >38° C., serum WBC count greater than 12,000/mm^3, urinary catheterization within 1 week, urinary tract anomalies, interstitial cystitis, urolithiasis, renal insufficiency, cancer history, immunocompromised, organ transplant history, pelvic organ prolapse stage II or higher, post-voiding residual urine more than 100 ml, stress or urge urinary incontinence, and positive urine culture during screening. 45 patients are screened for eligibility, with only 27 patients remained and 18 patients are excluded. The screening in the current trial is defined as Visit 1.
For analyzing results of the current study, all statistical analyses are performed using MedCalc Statistical Software version 19.0.3. The Mann-Whitney U test and Student's t-test are used to compare medians and means, respectively. Contingency tables are constructed for comparisons using a chi-square test and Fisher's exact test. The Kaplan—Meier method is used for the construction of survival curves. A log-rank test and Cox proportional hazard model are used to compare recurrence-free survival duration between groups. All tests are 2-tailed. A P-value <0.05 is considered significant.

[4] = system: uropathogenic Escherichia coli (UPEC); assay: Rat UTI model, low-dose PPS (Example 3): urine bacterial counts; format: in vivo, SD rats; conditions: for urine bacterial counts compared with UTI model group: Day 3
From the text: (§4) The purpose of the current example is to investigate effects of a reduced dosage of PPS for preventing UTI in the rat URI model. The SD rats are randomized and grouped into a control group (N=7), an UTI model group (N=10), a normal PPS dosage group (N=10), and a reduced PPS dosage group (N=5). The UTI model group, the normal PPS dosage group, and the reduced PPS dosage group are infected with UPEC on Day 1. The method of infection and the amount of UPEC being injected to the rats of the current study are the same as the UPEC infection in Example 1. […] The control group is not infected by the UPEC or treated by PPS. Urine samples and the blood samples of the rats are collected on Day 0, 3, and 7, using the same techniques and tools as described in Example 1. The collected urine samples are diluted 10, 10^2, 10^3, 10^4, and 10^5 folds, and the diluted urine samples are cultured on BSA plates and incubated for 12 hours at 37° C. UPEC colonies on the BSA plates are counted after the incubation. In FIGS. 10 and 11, the UTI model group is denoted as “UTI”, the normal PPS dosage group is denoted as “UROpre”, and the reduced PPS dosage group is denoted as “low UROpre”.

peripheral WBC count = assay: Rat UTI model, low-dose PPS (Example 3): peripheral WBC count percentages; format: in vivo, SD rats; conditions: 8.5 mg/kg/day oral Day −14 to Day 0
From the text: as §4
FIG. 11 is a bar chart comparing the peripheral WBC count percentages of the control group, the reduced PPS dosage group, and the UTI model group, in accordance with an embodiment of the present disclosure. The WBC counts reflects a current urinary tract infection episode, the WBC count percentage can be a relative indicator comparing the WBC counts before the infection and after the infection. The WBC count percentages in FIG. 11 are used to examine the efficacy of the reduced PPS dosage in the rat UTI model. The WBC counts on Day 0 in the control group, the reduced PPS dosage group, and the UTI group are designated as 100% in FIG. 11. The WBC count percentages of the 3 groups are elevated on Day 1, reflecting more WBCs entering the peripheral blood after the infection. On Day 3, the WBC count percentage of the low UROpre group is about 120%, whereas the WBC count percentage of the UTI group is about 130%.

[5] = in vivo
Method: The 27 patients remained are randomized to a PPS group (N=13) and a control group (N=14). The PPS are orally administered to the PPS group according to a continuous daily dosing regimen of 100 mg, 3 times a day for the first 8 weeks (total administered amount is 300 mg PPS per day). Then, the dosing regimen is changed to 100 mg 2 times a day for the remaining 8 weeks (total administered amount is 200 mg PPS per day). The PPS can be taken either 1 hour before or 2 hours after meal. Any forms of UTI prophylaxis or treatment, including antibiotics, hyaluronic acid instillation, cranberry, nonsteroidal anti-inflammatory drugs, or steroids, are forbidden in the study period of the current trial. […] The patients in both groups are visited every four week from the 0th week (Visit 2), the 4th week (Visit 3), the 8th week (Visit 4), the 12th week (Visit 5), to the 16th week (Visit 6), and Visit 6 is marked as the end of the current trial.
The patients are required to report relevant urinary tract symptoms to an investigator, during each of the visits. […] Information regarding adverse events, including grade of severity (according to National Cancer Institute Common Terminology Criteria for Adverse Events, version 5.0), timing, and their relationship with the medication assessed by the investigator, are also recorded at each of the visits. […]

[6] = orally administered PPS, previous studies; cited from earlier work
[7] = pH 6; cited from earlier work
[8] = system: peripheral red blood cell (RBC) counts; assay: Rat UTI model (Example 1): peripheral red blood cell counts; conditions: PPS 30 mg/kg/day oral Day −14 to Day 0; control, UTI model and PPS prevention groups
Method: The current example treats Sprague-Dawley (SD) rats with uropathogenic Escherichia coli (UPEC) to establish the rat UTI model. […] The UPEC used in the current example is ATCC®700336™, designation: J96 (serotype O4:K6), purchased from Food Industry Research and Development Institute of Taiwan. The UPEC is stored in trypticase soy agar/broth, and is centrifuged at 5,000 rpm for 10 minutes. Pellets of the UPEC after the centrifugation are dissolved in 10 mL sterile phosphate buffered saline (PBS). The cell density of the UPEC is adjusted to an optical density (OD600) of 1 to 1.1. This optical density is corresponded to the cell density of 8×10^7 to 2×10^8 colony forming units (CFU)/mL. The UPEC is then made into a 250 μL 0.9% N/S solution of 8×10^7 CFU for treating the rats.
The UTI model group and the PPS prevention group are infected with the UPEC by trans-urethral catherization on Day 1. The PPS prevention group is treated with the PPS by oral gavage with a 18G stainless-steel gavage needle attached to a 3 mL tuberculin syringe from Day −14 to Day 0. The PPS dosage for the rats in the current example is 30 mg/kg/day. […] The UPEC in the LB broths and on the LB agar plates are quantified after the incubation. […]

Substance: pentosan polysulfate sodium [PPS]
- urine bacterial counts compared with UTI model group ([1]; PPS 30 mg/kg/day oral Day −14 to Day 0, UPEC on Day 1, Day 1, Day 3 and Day 7): lower than the urine bacterial counts in the UTI model group
- urine bacterial counts ([1]; PPS 30 mg/kg/day oral gavage Day −14 to Day 0, Day 0): below 10^3 CFU/mL
- overall effect on UTI in the rats ([1]; PPS oral 30 mg/kg/day for 14 days): effectively reduces UTI
- peripheral WBC counts compared with UTI model group ([2]; Day 1, Day 3 and Day 7): fewer than the WBC counts in the UTI model group
- peripheral WBC counts, time course ([2]; after Day 3): in steady decline after Day 3
- peripheral IL-1β level compared with UTI model group (IL-1β): significantly lower than the UTI model group
- peripheral TNF-α levels compared with UTI model group (TNF-α): lower TNF-α levels than the UTI model group
- H/E staining result of bladder tissue (bladder epithelium): fresh layer of accumulated epithelial cells
- overall UTI recurrence free survival compared with control group (Kaplan-Meier) ([3]; 26 patients, log-rank test p=0.0004): significantly higher in the PPS group than in the control group
- UTI recurrence, % ([3]; PPS group N = 12, 300 mg/day for 8 weeks then 200 mg/day for 8 weeks, oral, 16 weeks, control 64.3%, p <0.001): 0%
- lower urinary tract symptoms or positive urine analysis ([3]; PPS group, 16-week study period): none of the patients in the PPS group had lower urinary tract symptoms nor positive urine analysis
- efficacy in preventing rUTI in the human subjects ([3]; about 3.34 mg/kg/day, total 200 mg PPS per day, remaining 8 weeks): also therapeutically effective
- efficacy in preventing rUTI in the human subjects ([3]; less than 5 mg/kg/day, total 300 mg PPS per day (reference weight 60 kg), first 8 weeks): proven to be therapeutically effective
- protective effect in preventing rUTI in the human subjects ([3]; oral administration of PPS, conclusion of the trial): excellent protective effect
- therapeutic effect in the rat UTI model ([4]; 8.5 mg/kg/day orally administered PPS, 14 days): therapeutically effective
- urine bacterial counts compared with UTI model group ([4]; normal PPS dosage 30 mg/kg/day oral Day −14 to Day 0 (UROpre)): lower than the UTI model group
- urine bacterial counts compared with UTI model group ([4]; reduced PPS dosage 8.5 mg/kg/day oral Day −14 to Day 0 (low UROpre)): lower than the UTI model group
- peripheral WBC count percentage (Day 0 = 100%) (peripheral WBC count; Day 1): elevated
- peripheral WBC count percentage (Day 0 = 100%) (peripheral WBC count; Day 3, UTI group about 130%): about 120%
- peripheral WBC count percentage (Day 0 = 100%) (peripheral WBC count; Day 7): about 60%
- peripheral WBC count percentage compared with UTI group (peripheral WBC count; Day 7): significantly lower than that of the UTI group
- adverse effects observed in the trial [5]: none of the above adverse effects are observed
- complete blood counts, liver function tests and coagulant-related tests [5]: no abnormalities
- adverse effect: abdominal pain [6]: 2%
- adverse effect: diarrhea [6]: 1-14.9%
- adverse effect: dizziness [6]: 1%
- adverse effect: dyspepsia [6]: 2%
- adverse effect: headache [6]: 1-2.9%
- adverse effect: liver function abnormalities [6]: 1-2%
- adverse effect: nausea [6]: 1.4%-7.9%
- adverse effect: rash [6]: 3%
- adverse effect: rectal hemorrhage [6]: 4%
- solubility in water [7]: up to 50%
- peripheral RBC counts, difference among groups [8]: no significant differences
